Data taken from patent US9469650B2, “Melampomagnolide B derivatives” (BOARD OF TRUSTEES OF THE UNIVERSITY OF ARKANSAS, priority 2013, dated 2016).
Where two headings read alike, the source gives them in different places.

Legend:
K-562 = test: panel of 60 human tumor cell lines, growth inhibition (Leukemia); details: for GI50 / CC50: Homo sapiens; for GI50: K562; for CC50: K562, read-out: LC50
MOLT-4 = test: as above; details: Homo sapiens; for GI50: MOLT-4; for CC50: MOLT-4, read-out: LC50; for IC (TGI): MOLT-4, read-out: TGI
SK-MEL-5 = test: panel of 60 human tumor cell lines, growth inhibition (Melanoma); details: Homo sapiens; for GI50: SK-MEL-5; for CC50: SK-MEL-5, read-out: LC50; for IC (TGI): SK-MEL-5, read-out: TGI
U251 = test: panel of 60 human tumor cell lines, growth inhibition (CNS Cancer); details: Homo sapiens; for GI50: U-251; for CC50: U-251, read-out: LC50; for IC (TGI): U-251, read-out: TGI
786-0 = test: panel of 60 human tumor cell lines, growth inhibition (Renal Cancer); details: Homo sapiens; for GI50: 786-0; for CC50: 786-0, read-out: LC50; for IC (TGI): 786-0, read-out: TGI
A498 = test: as above; details: Homo sapiens; for GI50: A498; for CC50: A498, read-out: LC50; for IC (TGI): A498, read-out: TGI
HS 578T = test: panel of 60 human tumor cell lines, growth inhibition (Breast Cancer); details: Homo sapiens, Hs-578T; for CC50: read-out: LC50; for IC (TGI): read-out: TGI
T-47D = test: as above; details: Homo sapiens, T47D; for CC50: read-out: LC50; for IC (TGI): read-out: TGI
MDA-MB-468 = test: as above; details: Homo sapiens; for GI50: MDA-MB-468; for CC50: MDA-MB-468, read-out: LC50; for IC (TGI): MDA-MB-468, read-out: TGI
OVCAR-3 = test: panel of 60 human tumor cell lines, growth inhibition (Ovarian Cancer); details: for GI50 / CC50 / IC (TGI): Homo sapiens; for GI50 / Percent Growth: OVCAR-3; for CC50: OVCAR-3, read-out: LC50; for IC (TGI): OVCAR-3, read-out: TGI
PC-3 = test: panel of 60 human tumor cell lines, growth inhibition (Prostate Cancer); details: Homo sapiens; for GI50: PC-3; for CC50: PC-3, read-out: LC50; for IC (TGI): PC-3, read-out: TGI
DU-145 = test: as above; details: Homo sapiens; for GI50: DU-145; for CC50: DU-145, read-out: LC50; for IC (TGI): DU-145, read-out: TGI
HOP-62 = test: panel of 60 human tumor cell lines, growth inhibition (Non-Small Cell Lung Cancer); details: Homo sapiens; for GI50: HOP-62; for CC50: HOP-62, read-out: LC50; for IC (TGI): HOP-62, read-out: TGI
HOP-92 = test: as above; details: Homo sapiens; for CC50: HOP-92, read-out: LC50; for IC (TGI): HOP-92, read-out: TGI
NCI-H226 = test: as above; details: Homo sapiens; for GI50: NCI-H226; for CC50: NCI-H226, read-out: LC50; for IC (TGI): NCI-H226, read-out: TGI
NCI-H460 = test: as above; details: Homo sapiens; for GI50: NCI-H460; for CC50: NCI-H460, read-out: LC50; for IC (TGI): NCI-H460, read-out: TGI
[1] = K-562, Log10 Concentration −4.0
[2] = K-562, Log10 Concentration −5.0
[3] = K-562, Log10 Concentration −6.0
[4] = K-562, Log10 Concentration −7.0
[5] = K-562, Log10 Concentration −8.0

For `C=C1C(=O)O[C@H]2[C@H]1CC/C(COC(=O)NCCN1CCOCC1)=C\CC[C@@]1(C)O[C@@H]21` [JVM 57, ((1aR,7aS,10aS,10bS,E)-1a-methyl-8-methylene-9-oxo-1a,2,3,6,7,7a,8,9,10a,10b-decahydrooxireno[2′,3′:9,10]-cyclodeca[1,2-b]furan-5-yl)-methyl(2-morpholinoethyl)carbamate], the “Percent Growth” value (HL-60(TB); Log10 Concentration −4.0) was −55%, the “Percent Growth” value (HL-60(TB); Log10 Concentration −5.0) was 14% and the “Percent Growth” value (HL-60(TB); Log10 Concentration −6.0) was 95%. The “Percent Growth” value (HL-60(TB); Log10 Concentration −7.0) was 101%, the “Percent Growth” value (HL-60(TB); Log10 Concentration −8.0) was 100% and the GI50 (K-562) was 3.37 µM. For the same compound, the CC50 (K-562) was > 100 µM, the TGI (K-562; K-562) was 2.88E−5 and the “Percent Growth” value (K-562; [1]) was −16%. The “Percent Growth” value (K-562; [2]) was 14%, the “Percent Growth” value (K-562; [3]) was 90% and the “Percent Growth” value (K-562; [4]) was 99%. The “Percent Growth” value (K-562; [5]) was 100%, the GI50 (MOLT-4) was 5 µM and the CC50 (MOLT-4) was > 100 µM. For the same compound, the IC (TGI) (MOLT-4) was 22.9 µM, the GI50 (SK-MEL-5) was 12.7 µM and the CC50 (SK-MEL-5) was 50.9 µM. For the same compound, the IC (TGI) (SK-MEL-5) was 25.4 µM, the GI50 (U251) was 42.9 µM and the CC50 (U251) was > 100 µM. The IC (TGI) (U251) was > 100 µM, the GI50 (786-0) was 11.4 µM and the CC50 (786-0) was 59.4 µM. For the same compound, the IC (TGI) (786-0) was 26 µM, the GI50 (A498) was 19.4 µM and the CC50 (A498) was > 100 µM. The IC (TGI) (A498) was 57 µM, the GI50 (HS 578T) was 20.1 µM and the CC50 (HS 578T) was > 100 µM. For the same compound, the IC (TGI) (HS 578T) was > 100 µM, the GI50 (T-47D) was 6.32 µM and the CC50 (T-47D) was 71.5 µM. The IC (TGI) (T-47D) was 23.2 µM, the GI50 (MDA-MB-468) was 3.26 µM and the CC50 (MDA-MB-468) was 59.1 µM. For the same compound, the IC (TGI) (MDA-MB-468) was 14.6 µM, the GI50 (OVCAR-3) was 6.2 µM and the CC50 (OVCAR-3) was 44.1 µM. For the same compound, the IC (TGI) (OVCAR-3) was 18.7 µM, the “Percent Growth” value (OVCAR-3; Log10 Concentration −4.0) was −98% and the “Percent Growth” value (OVCAR-3; Log10 Concentration −5.0) was 37%. For the same compound, the “Percent Growth” value (OVCAR-3; Log10 Concentration −6.0) was 101%, the “Percent Growth” value (OVCAR-3; Log10 Concentration −7.0) was 109% and the “Percent Growth” value (OVCAR-3; Log10 Concentration −8.0) was 109%. For the same compound, the GI50 (PC-3) was 16.6 µM, the CC50 (PC-3) was 85.8 µM and the IC (TGI) (PC-3) was 37.8 µM. For the same compound, the GI50 (DU-145) was 3.74 µM, the CC50 (DU-145) was 37 µM and the IC (TGI) (DU-145) was 13.3 µM. For the same compound, the GI50 (HOP-62) was 27.4 µM, the CC50 (HOP-62) was > 100 µM and the IC (TGI) (HOP-62) was 53 µM. It also gave a GI50 (HOP-92; HOP-92, HOP-92) of 2.3 µM, a GI50 (HOP-92; HOP-92, HOP-92, 5-dose assay) of 2.3 µM and a CC50 (HOP-92) of 33.7 µM. The IC (TGI) (HOP-92) was 8.61 µM, the GI50 (NCI-H226) was 42.7 µM and the CC50 (NCI-H226) was > 100 µM. The IC (TGI) (NCI-H226) was > 100 µM, the GI50 (NCI-H460) was 27.1 µM and the CC50 (NCI-H460) was > 100 µM. It also gave an IC (TGI) (NCI-H460) of 87.3 µM.

With `C=C1C(=O)O[C@H]2[C@H]1CC/C(COC(=O)NCCN1CCCC1)=C\CC[C@@]1(C)O[C@@H]21` [JVM 59, ((1aR,7aS,10aS,10bS,E)-1a-methyl-8-methylene-9-oxo-1a,2,3,6,7,7a,8,9,10a,10b-decahydrooxireno[2′,3′:9,10]cyclodeca[1,2-b]furan-5-yl)methyl-(2-(pyrrolidin-1-yl)ethyl)carbamate] the “Percent Growth” value (HL-60(TB); Log10 Concentration −4.0) was −63%, the “Percent Growth” value (HL-60(TB); Log10 Concentration −5.0) was 22% and the “Percent Growth” value (HL-60(TB); Log10 Concentration −6.0) was 95%. For the same compound, the “Percent Growth” value (HL-60(TB); Log10 Concentration −7.0) was 96%, the “Percent Growth” value (HL-60(TB); Log10 Concentration −8.0) was 88% and the GI50 (K-562) was 3.26 µM. For the same compound, the CC50 (K-562) was > 100 µM, the TGI (K-562; K-562, five dose) was 1.86E−5 and the “Percent Growth” value (K-562; [1]) was −36%. The “Percent Growth” value (K-562; [2]) was 13%, the “Percent Growth” value (K-562; [3]) was 89% and the “Percent Growth” value (K-562; [4]) was 79%. For the same compound, the “Percent Growth” value (K-562; [5]) was 87%, the GI50 (MOLT-4) was 3.48 µM and the CC50 (MOLT-4) was 89.7 µM. For the same compound, the IC (TGI) (MOLT-4) was 17.5 µM, the GI50 (SK-MEL-5) was 15.5 µM and the CC50 (SK-MEL-5) was 55.1 µM. The IC (TGI) (SK-MEL-5) was 29.2 µM, the GI50 (U251) was 26.7 µM and the CC50 (U251) was > 100 µM. For the same compound, the IC (TGI) (U251) was 93.1 µM, the GI50 (786-0) was 14.4 µM and the CC50 (786-0) was 60 µM. The IC (TGI) (786-0) was 29.4 µM, the GI50 (A498) was 20.4 µM and the CC50 (A498) was 95.2 µM. The IC (TGI) (A498) was 44.1 µM, the GI50 (HS 578T) was 19.7 µM and the CC50 (HS 578T) was > 100 µM. For the same compound, the IC (TGI) (HS 578T) was 69 µM, the GI50 (T-47D) was 4.86 µM and the CC50 (T-47D) was 63.8 µM. The IC (TGI) (T-47D) was 19.2 µM, the GI50 (MDA-MB-468) was 2.3 µM and the CC50 (MDA-MB-468) was 42.9 µM. For the same compound, the IC (TGI) (MDA-MB-468) was 9.06 µM, the GI50 (OVCAR-3) was 8.41 µM and the CC50 (OVCAR-3) was 46.4 µM. The IC (TGI) (OVCAR-3) was 20.8 µM, the “Percent Growth” value (OVCAR-3; Log10 Concentration −4.0) was −98% and the “Percent Growth” value (OVCAR-3; Log10 Concentration −5.0) was 46%. The “Percent Growth” value (OVCAR-3; Log10 Concentration −6.0) was 102%, the “Percent Growth” value (OVCAR-3; Log10 Concentration −7.0) was 100% and the “Percent Growth” value (OVCAR-3; Log10 Concentration −8.0) was 101%. The GI50 (PC-3) was 15.7 µM, the CC50 (PC-3) was 70.1 µM and the IC (TGI) (PC-3) was 33.2 µM. For the same compound, the GI50 (DU-145) was 7.42 µM, the CC50 (DU-145) was 46.3 µM and the IC (TGI) (DU-145) was 20.2 µM. The GI50 (HOP-62) was 18 µM, the CC50 (HOP-62) was 62.3 µM and the IC (TGI) (HOP-62) was 33.5 µM. For the same compound, the GI50 (HOP-92; HOP-92, HOP-92, five dose) was 2.25 µM, the GI50 (HOP-92; HOP-92, HOP-92, 5-dose assay) was 2.25 µM and the CC50 (HOP-92) was 32.3 µM. For the same compound, the IC (TGI) (HOP-92) was 7.86 µM, the GI50 (NCI-H226) was 35.3 µM and the CC50 (NCI-H226) was > 100 µM. For the same compound, the IC (TGI) (NCI-H226) was > 100 µM, the GI50 (NCI-H460) was 22.3 µM and the CC50 (NCI-H460) was > 100 µM. It also gave an IC (TGI) (NCI-H460) of 51.4 µM.
